{
  "source": "paper PMC9321894",
  "about": "“Design and Anticancer Properties of New Water-Soluble Ruthenium–Cyclopentadienyl Complexes” (Pharmaceuticals, 2022)",
  "biological_target": "T1, {HSA-warfarin} adduct, Sudlow site I of HSA (Homo sapiens, UniProt P02768)",
  "T1 construct": "purchased Sigma-Aldrich",
  "T1 sequence (P02768 25-609)": "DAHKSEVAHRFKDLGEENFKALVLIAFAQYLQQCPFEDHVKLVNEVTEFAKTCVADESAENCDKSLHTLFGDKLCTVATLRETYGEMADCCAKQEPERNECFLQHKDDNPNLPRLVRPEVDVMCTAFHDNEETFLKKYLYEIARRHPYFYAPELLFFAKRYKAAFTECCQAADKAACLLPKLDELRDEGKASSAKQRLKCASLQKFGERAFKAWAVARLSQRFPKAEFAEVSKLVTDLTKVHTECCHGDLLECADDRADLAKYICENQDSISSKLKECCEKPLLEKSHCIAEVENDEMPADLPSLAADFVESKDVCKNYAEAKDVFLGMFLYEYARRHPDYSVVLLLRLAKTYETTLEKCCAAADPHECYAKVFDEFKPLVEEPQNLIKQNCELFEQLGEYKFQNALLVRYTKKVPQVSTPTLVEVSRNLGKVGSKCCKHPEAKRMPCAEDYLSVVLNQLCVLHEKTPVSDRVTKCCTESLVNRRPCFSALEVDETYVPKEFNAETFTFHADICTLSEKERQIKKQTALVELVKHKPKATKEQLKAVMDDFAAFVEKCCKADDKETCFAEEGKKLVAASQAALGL",
  "assay": "Site-marker competitive study with warfarin",
  "format": "binding",
  "conditions": "HSA and warfarin equimolar 2.5 μM, Ru 0-45 μM, excitation 305 nm, emission ~380 nm",
  "method": "Competitive binding studies were carried out by fluorescence using the classical site marker warfarin. The concentrations of HSA and warfarin were kept equimolar. The addition of complex 6 to {HSA-warfarin} solution was done according to the procedure described above for the steady-state fluorescence quenching studies.",
  "data": [
    {"substance": "[RuCp(mTPPMSNa)(bopy)][CF3SO3] [Compound 6]", "values": [
      {"measurement": "Displacement of warfarin from {HSA-warfarin} adduct (in words)", "result": "partially replaced"}
    ]}
  ]
}
